Test results as given in patent US20240336608A1, “IL4I1 INHIBITORS AND METHODS OF USE” (Merck Sharp & Dohme LLC, priority 2023, published 2024).

These molecules were tested against T1, recombinant IL4I1 (Homo sapiens, UniProt Q96RQ9) (assay: IL4I1 Enzymatic Assay (Amplex Red/HRP coupled detection of H2O2, fluorescence)). Conditions: 1 nM recombinant IL4I1; four-hour pre-incubation with compound; 1 mM each Phe, Tyr, Trp; ten-point titration.
T1 construct: purchased R&D Systems 5684-AO-020
T1 sequence (Q96RQ9 22-567): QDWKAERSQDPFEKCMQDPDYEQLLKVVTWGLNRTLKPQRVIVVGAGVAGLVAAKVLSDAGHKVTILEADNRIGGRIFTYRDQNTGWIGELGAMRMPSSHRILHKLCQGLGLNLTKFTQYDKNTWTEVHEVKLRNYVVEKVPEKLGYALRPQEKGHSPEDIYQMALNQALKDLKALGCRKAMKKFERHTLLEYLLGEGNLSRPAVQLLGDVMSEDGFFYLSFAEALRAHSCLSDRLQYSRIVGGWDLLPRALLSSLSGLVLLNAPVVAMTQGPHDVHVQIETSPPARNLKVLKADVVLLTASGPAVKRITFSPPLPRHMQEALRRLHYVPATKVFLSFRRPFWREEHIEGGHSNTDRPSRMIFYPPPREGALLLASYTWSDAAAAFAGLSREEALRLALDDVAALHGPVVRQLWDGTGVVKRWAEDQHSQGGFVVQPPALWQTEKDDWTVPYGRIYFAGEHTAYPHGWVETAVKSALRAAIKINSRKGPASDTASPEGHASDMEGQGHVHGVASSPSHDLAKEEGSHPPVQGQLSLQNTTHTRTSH
Assay type: biochemical
Outline: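 H2O2 output was coupled to resorufin fluorescence (ex 544/em 590) via 0.05 mM Amplex Red and 1 U/mL HRP. Substrate: Phe, Tyr, Trp at 1 mM each; enzyme 1 nM, 4 h compound pre-incubation, 120 min reaction, pH 7.0 Hepes. EC50 by nonlinear four-parameter regression, 1:3 ten-point titration.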

Q: Which EC50 does the source give for O=C(NCc1nnc(-c2ccccc2)s1)c1cn(-c2ccncc2)nn1 [Example 240, N-((5-phenyl-1,3,4-thiadiazol-2-yl)methyl)-1-(pyridin-4-yl)-1H-1,2,3-triazole-4-carboxamide] here?
A: Its EC50 is 163 nM.

Q: For Cc1ccc(-n2cc(C(=O)NCc3cc(-c4ccccc4)no3)nn2)c(C)n1 [Example 234, 1-(2,6-dimethylpyridin-3-yl)-N-((3-phenylisoxazol-5-yl)methyl)-1H-1,2,3-triazole-4-carboxamide], which EC50 is on record?
A: Its EC50 is 9 nM.

Q: For O=C(NCc1nnc(-c2ccccc2)s1)c1cn(CCN2CCNC2=O)nn1 [Example 125, 1-(2-(2-oxoimidazolidin-1-yl)ethyl)-N-((5-phenyl-1,3,4-thiadiazol-2-yl)methyl)-1H-1,2,3-triazole-4-carboxamide], which EC50 is on record?
A: The EC50 was 453 nM.

Q: How did the EC50 turn out when Cc1ccc(C(=O)NCc2nnc(-c3ccccc3)s2)s1 [Example 12, 5-methyl-N-[(5-phenyl-1,3,4-thiadiazol-2-yl)methyl]thiophene-2-carboxamide] was run?
A: The EC50 was 90 nM.

Q: With Cc1ccc(-n2cc(C(=O)NC(C)c3nnc(-c4ccccc4)s3)nn2)c(C)n1 (single isomer, unassigned) [Example 262, 1-(2,6-dimethylpyridin-3-yl)-N-(1-(5-phenyl-1,3,4-thiadiazol-2-yl)ethyl)-1H-1,2,3-triazole-4-carboxamide] as the molecule, how does the EC50 read?
A: The EC50 was 85 nM.

Q: How did the EC50 turn out when CC(C#N)n1cc(C(=O)NCc2cc(-c3ccncc3)on2)nn1 (single isomer, unassigned) [Example 275, 1-(1-cyanoethyl)-N-((5-(pyridin-4-yl)isoxazol-3-yl)methyl)-1H-1,2,3-triazole-4-carboxamide] was run?
A: Its EC50 is 25 nM.

Q: How did the EC50 turn out when CC(C)n1cc(C(=O)NCc2nnc(-c3ccncc3)s2)nn1 [Example 269, 1-isopropyl-N-((5-(pyridin-4-yl)-1,3,4-thiadiazol-2-yl)methyl)-1H-1,2,3-triazole-4-carboxamide] was run?
A: The EC50 was 10 nM.

Q: With Cc1ncccc1-n1cc(C(=O)NCc2nnc(-c3ccccc3)s2)nn1 [Example 315, 1-(2-methylpyridin-3-yl)-N-((5-phenyl-1,3,4-thiadiazol-2-yl)methyl)-1H-1,2,3-triazole-4-carboxamide] as the molecule, how does the EC50 read?
A: The EC50 was 86 nM.

Q: With O=C(NCc1nnc(-c2ccccc2)s1)c1scc2c1OCCO2 [Example 22, N-[(5-phenyl-1,3,4-thiadiazol-2-yl)methyl]-2,3-dihydrothieno[3,4-b][1,4]dioxine-5-carboxamide] as the molecule, how does the EC50 read?
A: The EC50 was 27 nM.

Q: For COc1cc(C(=O)NCc2nnc(-c3ccccc3)s2)on1 [Example 58, 3-methoxy-N-[(5-phenyl-1,3,4-thiadiazol-2-yl)methyl]isoxazole-5-carboxamide], which EC50 is on record?
A: Its EC50 is 92 nM.

Q: CC(C)Cn1cc(C(=O)NCc2nnc(-c3ccccc3)s2)nn1 [Example 88, 1-isobutyl-N-((5-phenyl-1,3,4-thiadiazol-2-yl)methyl)-1H-1,2,3-triazole-4-carboxamide] was tested. Which EC50 did it give?
A: Its EC50 is 13 nM.

Q: How did the EC50 turn out when Cc1nc(C#N)ccc1-n1cc(C(=O)NCc2nnc(-c3ccccc3)s2)nn1 [Example 335, 1-(6-cyano-2-methylpyridin-3-yl)-N-((5-phenyl-1,3,4-thiadiazol-2-yl)methyl)-1H-1,2,3-triazole-4-carboxamide] was run?
A: The EC50 was 10 nM.

Q: For O=C(NCc1cc(-c2ccccc2)on1)c1cn(CC(F)(F)F)nn1 [Example 232, N-((5-phenylisoxazol-3-yl)methyl)-1-(2,2,2-trifluoroethyl)-1H-1,2,3-triazole-4-carboxamide], which EC50 is on record?
A: The EC50 was 6 nM.

Q: Which EC50 does the source give for Cc1ccc(-n2cc(C(=O)NCc3nnc(-c4ccccc4)s3)nn2)c(=O)[nH]1 [Example 339, 1-(6-methyl-2-oxo-1,2-dihydropyridin-3-yl)-N-((5-phenyl-1,3,4-thiadiazol-2-yl)methyl)-1H-1,2,3-triazole-4-carboxamide] here?
A: Its EC50 is 174 nM.

Q: CC(NC(=O)c1cn(CC(F)F)nn1)c1ccc(-c2ccccc2)nn1 (single isomer, unassigned) [Example 348, 1-(2,2-difluoroethyl)-N-(1-(6-phenylpyridazin-3-yl)ethyl)-1H-1,2,3-triazole-4-carboxamide] was tested. Which EC50 did it give?
A: The EC50 was 880 nM.
